SMILES	melting point [°C]
CCC(C)(C)Nc1c(NCc2c(C)cccc2C)c(=O)c1=O	227 to 231
COP(=O)(CC(O)c1c(C(C)C)nn(-c2ccccc2)c1-c1ccc(F)cc1)OC (stereo not given)	126 to 128
CCC(=O)c1cc(-c2ccccc2)no1	111 to 112
Cn1cc(C(=O)NCc2ccc(Cl)cc2)c(=O)c2cc(CN3CCOCC3)cc(C#CCC[C@@H]3COC(=O)N3)c21	171 to 173
NC1=C2C=NN=C2N(c2ccc([N+](=O)[O-])cc2)CN1c1ccccc1	348 to 349
C[C@@H](C(=O)O)N(C)C(=O)c1cc(C(F)(F)F)cc([N+](=O)[O-])c1N	136
COc1ccc([N+](=O)[O-])c(C=O)c1OC	106 to 108
CC(C)NCC(O)COc1cccc2c1C(=Cc1ccccc1)C(=O)N2 (stereo not given)	163 to 165
CCN(CC)Cc1nc2sc3c(c2c(-c2ccc(OC)c(OC)c2)c1Cl)CCN(Cc1ccccc1)C3	150 to 151
CCOC(=O)C(Cc1cc(Oc2c(Cl)cc(C(F)(F)F)cc2Cl)ccc1SC(F)(F)F)C(=O)OCC	83
O=C(O)C(C(=O)O)C1c2ccccc2CCc2ccccc21	183
CC(C(=O)N(C)C)n1c(-c2ccc(Cl)cc2)nc2cccnc21 (stereo not given)	124 to 126
CN1CCC(C2=C(C#N)C(c3ccccc3Cl)c3c[nH]nc3N2)CC1 (stereo not given)	> 270
O=C1CC(Cl)C(=O)N1C1CCCCC1 (stereo not given)	63 to 64
COc1ccc(C(=O)c2cc3ccccc3o2)cc1	93 to 94
CC(C)n1nc(-c2c(-c3ccccc3)nc(N)nc2N2CCNCC2)ccc1=O	254 to 256
COc1ccc2c(CCN3CCCCC3=O)c[nH]c2c1	146
CC(C)(C)C12OOC1(c1cc3cc(O[Si](C)(C)C(C)(C)C)ccc3o1)OCC2(C)C (stereo not given)	117 to 118
Clc1ccc2c(Cl)nc(-c3ccc(Br)cc3)nc2c1	189 to 190
Cc1c(NC(=O)c2ccc(CC(=O)C3CCCO3)cc2)ccc2cc(CN3CCCC3)cnc12 (stereo not given)	102

SMILES	melting point [°C]
COc1ccc2[nH]c(C(=O)c3ccccc3)c(NC(C)=O)c2c1	258 to 260
COc1ccc(Br)c(CC(C#N)C(=O)O)c1OC (stereo not given)	120 to 122
CCOc1ccc(N2CCN(c3c(C)c4c(c(OCC)c3C)OC(C)C4)CC2)cc1 (stereo not given)	121 to 122
CC(C)c1cccc(C(C)C)c1NC(=O)CN[C@H](C)c1ccccc1	119 to 120
COc1ccc(NC(=O)NCc2cccc3c2C(=O)N(C2CCC(=O)NC2=O)C3=O)cc1 (stereo not given)	205 to 207
CC(=O)NC[C@H]1CN(c2ccc(N3CCC(O)(CO)CC3)c(F)c2)C(=O)O1	98 to 100
CCCc1c(OCC(=O)O)ccc(C(C)=O)c1O	128 to 130
CNC(=O)Nc1ccc(OCCCN2CCC(C(O)(c3ccc(F)cc3)c3ccc(F)cc3)CC2)cc1	177 to 178
O=C(O)c1ccc2c(c1)S(=O)c1ccc([N+](=O)[O-])cc1C=C2 (stereo not given)	278 to 281
O=C1CCC(N2C(=O)c3ccc(CNC(=O)c4ccc(Cl)cc4)cc3C2=O)C(=O)N1 (stereo not given)	178 to 180
CC(C)c1nc2ccccc2n1CCCCCSc1nc(-c2ccc(N(C)C)cc2)c(-c2ccc(N(C)C)cc2)[nH]1	110 to 112
O=C(NCCCl)NCC1(Cc2ccccc2)CC(=O)C(OCc2ccccc2)=CN1 (stereo not given)	130
OCCOCc1nn(Cc2ccccc2)c2ccccc12	67 to 69
CCCCC1=NC2(CCCC2)C(=O)N1Cc1ccc(-c2ccccc2S(=O)(=O)Nc2onc(C)c2C)c(CN2CCC(C)(C)C2=O)c1	104 to 110
O=C(NC1CCN(CC(O)COc2cccc3ccccc23)CC1)c1ccccc1 (stereo not given)	139 to 141
CCOC(=O)CC(=O)c1ccc(CCNC(C)=O)cc1	89 to 92
O=C(O)c1c(-c2cccc(OCC3CC3)c2)c2ccccc2n1Cc1ccc(F)cc1	200 to 202
CN(C)c1ncc2c(=O)n(Cc3ccccn3)sc2n1	145 to 146
CCOC(=O)CNc1cc(F)ccc1[N+](=O)[O-]	194 to 195
COc1cc2c(c3c1OC(C)(C)C3)C(c1ccncc1Cl)=NC(C)(C)C2	126 to 128

The remaining lines, values ahead:

melting point [°C]	SMILES
147 to 149	CCOCc1nc2c(N)nc(C)c(C)c2n1NCc1cccnc1
113 to 116	CS(=O)(=O)c1ccc(-c2[nH]nc(OC3CCCCC3=O)c2-c2ccc(F)cc2)cc1 (stereo not given)
118 to 120	NS(=O)(=O)c1ccc(-n2nc(C(F)(F)F)cc2-c2ccc(OS(=O)(=O)C(F)(F)F)c(Cl)c2)cn1
143 to 145	Cc1cc(CC(=O)OC(C)(C)C)ccc1NC(=O)Nc1ccccc1
206 to 207	Cc1cc(=O)c(C(=O)Nc2ccccc2Cl)c(C)o1
184 to 187	CCOC(=O)C(=CNc1sc(-c2ccc(OC)cc2)c(C)c1C(=O)O)C(=O)OCC
117 to 119	COCC1Cc2c(Cl)c(C)cc([N+](=O)[O-])c2O1 (stereo not given)
158 to 160	CC(C)(C)OC(=O)C(N)CCCCNC(=O)c1ccc(Cl)c(S(N)(=O)=O)c1 (stereo not given)
199 to 200	CC(N1C(=O)C(=O)N(c2ccc(Cl)cc2)C1=S)C(C)(C)C (stereo not given)
150 to 151	Nc1ccc2c(c1)S(=O)(=O)N(CCCCN1CCN(c3ncccn3)CC1)C2=O
169	O=C1[C@@H]2CCCN2C(=O)N1c1cc(Cl)cc(Cl)c1
110 to 112	O=C(CCc1cccnc1)NCCCCC1CCN(C2c3ccccc3COc3ccccc32)CC1 (stereo not given)
151 to 153	Cc1nc2c(OCc3ccccc3F)cccn2c1CO
60 to 65	CS(=O)(=O)c1ccc(Cl)c(C(=O)Nc2ccc(-n3nc(C4CC4)cc3C3CC3)cc2)c1
92 to 94	COc1ccc2cc([C@H](C)C(=O)OCCC(C)(C)C)ccc2c1
191 to 194	COCc1nc2cccc(C(=O)OC)c2n1Cc1ccc(-c2ccccc2-c2nnn[nH]2)cc1
58 to 61	Cc1ccc(SC(CCCCCc2ccc(Cl)cc2)C(=O)O)cc1 (stereo not given)
159 to 161	O=C(c1ccc(-c2ncc[nH]2)cc1)N1CCN(S(=O)(=O)c2ccc3cc(Cl)ccc3c2)CC1
98.9 to 102	CC(c1ccc2c(c1)C(=O)c1ccccc1C2=O)N1CCN(C)CC1 (stereo not given)
131 to 134	C#CCNC(=O)/C=C\SC(=O)c1ccccc1
196	Cc1cccc(-c2nc(O)cc(-c3ccccc3Cl)n2)n1
149 to 150	COCc1nnc2ccc(-c3cccc(C(F)(F)F)c3)nn12
144 to 146	O=C(O)COCC(=O)OCC1CN(C(=O)Oc2ccccc2)CCC1c1ccc(F)cc1 (stereo not given)
108 to 109	CN(C)CC1Cc2ccccc2N(S(=O)(=O)CCc2ccc(-c3ccccc3)cc2)C1 (stereo not given)
77 to 79	CN(CC1CO1)S(=O)(=O)C(F)(F)C(F)(F)C(F)(F)C(F)(F)S(=O)(=O)N(C)CC1CO1 (stereo not given)
87.5 to 90	OCCCc1ccc(-c2ccc(CCCO)c(C(F)(F)F)c2)cc1C(F)(F)F
66 to 68	O=C1CCSc2ncccc21
172	CNc1nc(N)nc2c1ncn2C1OC(CO)C(O)C1F (stereo not given)
242 to 244	CCn1c(=O)c2c(nc(/C=C/c3cccc(O)c3O)n2C)n(CC)c1=O
194 to 196	O=c1ccc(C2(O)CCCCC2)c[nH]1
